Measured values: the supplement of paper PMC3068080

Tests used:
TGFBR1 mRNA = assay: remaining TGFBR1 mRNA relative to control siRNA (off-target knock-down) (fraction of control); quantification method: branched DNA; higher = less knock-down
Experimental: (§1)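 Screen-hit siRNA duplexes (19-mer plus 3' dTdT overhang) were transiently transfected into HaCaT cells in 12-well plates. After 48 h, TGFBR1 and TGFBR2 mRNA were quantified by branched DNA assay (QuantiGene, normalised to HPRT1) or by SYBR qPCR (normalised to HPRT1/SMAD4). Values are the remaining mRNA relative to control-siRNA-transfected cells; 1-2 biological replicates.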

TGFBR2 mRNA = assay: remaining TGFBR2 mRNA relative to control siRNA (off-target knock-down) (fraction of control); quantification method: branched DNA; higher = less knock-down
Experimental: as §1

Row | Sequence | remaining TGFBR1 mRNA (TGFBR1 mRNA) | remaining TGFBR2 mRNA (TGFBR2 mRNA)
1 | UGGGCUUUUCUCUUCUCUCTT | 1.47 | 1.43
2 | GAGUGACCUGCUCCUCUAATT | 1.01 | 0.61
3 | AGUUCUCUCAAUUGCUUACTT | 0.92 | 0.54
4 | AUGGACAUUUACGGUAGUGTT | 0.44 | 0.46
5 | UUAUUGGGCAAAAUCCGGGTT | 0.88 | 0.72
6 | UUGUCAAAGUGGAACGCUCTT | 0.83 | 0.29
7 | AAUGGGAGACAAGCCAAUUTT | 0.77 | 0.25
8 | AGGCUAUAAGCUCGCCUACTT | 0.84 | 0.25
9 | UGAUGUUGUCUUGUCUGGUTT | 0.44 | 0.42
10 | UUGUGCUGCAUACGGAGCCTT | 1.69 | 0.45
11 | GGAAGUGUCAUGGAAGGUGTT | 0.7 | 0.29
12 | UAUGCUCCUCUUCCUGUUCTT | 1.43 | 0.57
13 | AUAUUCCGUAAAACGAACATT | 0.77 | 0.38
14 | UUCCCUGCUACUGUUGCUUTT | 0.84 | 0.72
15 | UCACCUUGCAGGAAGGAAGTT | 1.26 | 0.71
16 | CUACCAUCAAUCCGGUAGGTT | 0.94 | 0.84
17 | AUCUACACACACGCAAGAATT | 1.48 | 0.73
18 | UAACGUGUGUAUGUCUGGCTT | 0.3 | 0.69
19 | AGCUUAUCCAACAGACGUCTT | 1.07 | 0.29
20 | UCCUUGGUCUCAUCUGCCUTT | 1.05 | 0.43
21 | AUAUAUACUGCUAUGGUCATT | 0.39 | 0.39
22 | GUUCUUGGGCUAUGUCCAATT | 0.89 | 0.32
23 | CCCAAGUCAUCCUGGUUGUTT | 0.83 | 0.67
24 | UUCUUUGGAGAGUCCGGUCTT | 0.88 | 0.3
25 | GGGCUGUCAAUGACAGCUUTT | 0.82 | 0.6

Row | Sequence | remaining TGFBR1 mRNA (TGFBR1 mRNA) | remaining TGFBR2 mRNA (TGFBR2 mRNA)
26 | UCCUGGAAGUUUGACGUCCTT | 0.88 | 1.41
27 | AGCGUCCUGAAGACUGGAUTT | 0.27 | 1.03
28 | UUUCAUUCCAUUGGAAUUUTT | 1.25 | 0.59
29 | AAUUGGCUCCACAGUCUUUTT | 1.23 | 0.44
30 | UUGUAAAAACCAGGCGACCTT | 1.48 | 0.33
31 | AGAAGUGUGACACGGGUCUTT | 0.93 | 0.15
32 | UCUCAUUUACCCUUUGGGGTT | 0.67 | 0.33
33 | AAUGCUGUUGGCAGCCAGATT | 0.71 | 0.11
34 | AUGUUCCGCCUGCUUUUGCTT | 1.19 | 0.38
35 | UUUGGACUGGUUGGCACAGTT | 1.11 | 0.69
36 | GAGGUUGUUGUUGAGCUCGTT | 0.96 | 0.73
37 | UUUGGAGCUCCCCAAACGCTT | 0.39 | 0.26
38 | AGCCCAUGCCCUUCACAAUTT | 0.71 | 0.89
39 | UGCUUGAGUAGUGCUAGUUTT | 0.71 | 0.58
40 | UUUGGCUUCUUCUAGUGACTT | 0.91 | 0.51
41 | UCCUUGUCCUUGGACAGUGTT | 1.14 | 0.24
42 | UGCAGUGAUAAAGGCUACATT | 0.34 | 0.67
43 | UGAUAGCACCAACACAAAGTT | 0.44 | 0.74
44 | UGAAGACAGUCCUAUGGACTT | 0.42 | 0.97
45 | UCAUAAGCAUGCUCCACACTT | 0.14 | 0.62
46 | UAGCAUUCAUUUUCCGUGGTT | 0.72 | 0.27
47 | AUUUCGCACACGUCCGUGUTT | 0.86 | 0.61
48 | AUCCUUGUCUGGAACAGUGTT | 1.33 | 0.25
49 | AUCCUUGGCCAGUUUGGUCTT | 1.19 | 0.15
50 | GGUGCCAGGCAUUUUAUCCTT | 1.06 | 0.9

Row | Sequence | remaining TGFBR1 mRNA (TGFBR1 mRNA) | remaining TGFBR2 mRNA (TGFBR2 mRNA)
51 | AUGCCAUUGUGCAUUGUCATT | 0.85 | 0.36
52 | AGAUCACCGCGUAGACAACTT | 1.01 | 0.65
53 | AAUCCUCUGGUGACUGCUGTT | 1.13 | 0.54
54 | UUUCCUGGUUGGUGAGCAGTT | 1.29 | 0.36
55 | GCUGAAUGAGGGUAGUCUUTT | 0.28 | 0.64
56 | AGGUCAUCACGUACUUUUUTT | 0.16 | 1.09
57 | UCAAGCCCAGAGGUGUCAUTT | 1.24 | 1
58 | UCAAGGUGGACAAAGCUCUTT | 0.74 | 0.29
59 | UUAUAAGCCAAAGUGCGUCTT | 0.6 | 1.66
60 | UGCUUAUCUCAUCUGAAGCTT | 0.93 | 0.28
61 | GUUCAGCAGCAGCAGACCATT | 1.16 | 0.79
62 | AUCCUGAGAUGUCAGCAGCTT | 1.42 | 0.4
63 | AGGUUGUGGGCAAAGAUGUTT | 0.92 | 0.83
64 | AUGGCUAUUCCUGACCACGTT | 0.93 | 0.26
65 | AUGUCUCAAAGUCAAAAAATT | 0.92 | 0.58
66 | AUAAGCAGUGAGAACGAGCTT | 0.5 | 1.26
67 | AAAAGGCCUUCAAGCUGUUTT | 0.56 | 0.41
68 | AGCUUGUGCCAAGUGCCAUTT | 0.92 | 0.33
69 | UGAUGUUGAUCUGGGGCACTT | 0.55 | 0.54
70 | UUCCUUGGUACGGCCGCUCTT | 0.87 | 0.13
71 | UAUAACUCUCAGGGGAUAUTT | 1.07 | 0.4
72 | UGGCCGUCAAUGUAUUUCUTT | 1.25 | 0.7
73 | GGGUUUUCCCAGUCACGACTT | 0.91 | 0.54
74 | GAGCAGCUCUCGUAGCCAUTT | 1.01 | 0.33
75 | AAGUGCAUUCCGUGCAAUCTT | 0.92 | 0.59

Row | Sequence | remaining TGFBR1 mRNA (TGFBR1 mRNA) | remaining TGFBR2 mRNA (TGFBR2 mRNA)
76 | ACUGGAUCAGUCGCAGAAUTT | 1.15 | 0.38
77 | UUGCAAGCCCAGAUCAGACTT | 0.92 | 0.74
78 | ACAGCCUCGAACACUGACATT | 1.04 | 0.58
79 | UCUGGUCUCAGCCAUUGAATT | 0.26 | 1.08
80 | UGGAAGACGCUUUAAAGGCTT | 0.85 | 0.48
81 | AGUGGUACCACGAGCAAAGTT | 0.88 | 0.66
82 | UCCAAGUCGAGAAGAGACCTT | 0.9 | 0.46
83 | UCAAGUGCAUCUCCACAGCTT | 1.29 | 0.23
84 | AAUCAGGGCGGAGUAGGUGTT | 1.21 | 0.91
85 | AGCACUGCGAGUACUGUGUTT | 0.33 | 1.08
86 | CCACUGGUGUGGGCCAUAATT | 1.38 | 0.51
87 | UUCAAGGUCAGUCUCUGGGTT | 1.07 | 0.51
88 | AUGGAGUAGCAUCACUCUCTT | 1.1 | 0.33
89 | UCCAGCUGCAUUCCUCGCUTT | 0.75 | 0.35
90 | UCUCGGAGGCAGUUCCAGCTT | 0.86 | 0.82
91 | AAGUCUGACUCGGUAAGUATT | 0.87 | 0.72
92 | UGCGUUUACGGUUCACACGTT | 0.69 | 0.6
93 | CAAACAGCGGUUGGAAUAATT | 0.81 | 0.33
94 | ACCUUACCUUGUCGACGAATT | 0.7 | 0.56
95 | ACUUUGGUUUCGGUGCAGCTT | 0.63 | 0.23
96 | CUGACCAUGCAGAGGAUGATT | 0.83 | 0.82
97 | UGUGCUUGGUCACGGACACTT | 1.86 | 0.27
98 | CAGUCUCAUCGUCCUCAUCTT | 1.07 | 0.69
99 | CACUUCCCGGAUACUCAGATT | 0.96 | 0.33
